Consider five molecules from patent US6027875A, “Receptor infection assay” (The Salk Institute for Biological Studies, priority 1991, dated 2000).

The target in test [1] is T1, human glucocorticoid receptor (GR) (Homo sapiens, UniProt P04150).
T1 sequence (P04150 1-777): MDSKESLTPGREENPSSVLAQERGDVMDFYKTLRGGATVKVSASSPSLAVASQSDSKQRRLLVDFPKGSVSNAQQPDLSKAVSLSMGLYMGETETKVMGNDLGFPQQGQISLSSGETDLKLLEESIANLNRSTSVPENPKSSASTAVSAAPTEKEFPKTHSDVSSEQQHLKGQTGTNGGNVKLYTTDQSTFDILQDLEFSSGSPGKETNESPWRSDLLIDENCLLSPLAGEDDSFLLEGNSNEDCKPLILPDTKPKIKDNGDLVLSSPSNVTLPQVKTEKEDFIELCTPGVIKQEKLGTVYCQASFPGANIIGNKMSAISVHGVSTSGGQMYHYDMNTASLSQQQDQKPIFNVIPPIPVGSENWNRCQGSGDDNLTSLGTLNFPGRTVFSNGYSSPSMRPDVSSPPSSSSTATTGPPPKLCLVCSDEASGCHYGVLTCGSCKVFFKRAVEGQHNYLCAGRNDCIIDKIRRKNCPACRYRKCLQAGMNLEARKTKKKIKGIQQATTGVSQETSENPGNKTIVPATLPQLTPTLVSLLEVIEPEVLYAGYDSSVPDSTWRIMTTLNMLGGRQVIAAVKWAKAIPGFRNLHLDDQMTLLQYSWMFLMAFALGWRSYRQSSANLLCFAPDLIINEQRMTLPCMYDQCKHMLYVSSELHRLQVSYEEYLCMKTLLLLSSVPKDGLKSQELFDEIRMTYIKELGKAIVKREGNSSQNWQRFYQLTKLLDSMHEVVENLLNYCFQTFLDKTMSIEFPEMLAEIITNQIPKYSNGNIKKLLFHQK
Description: Luciferase-based coinfection assay with unpurified virus stocks in 293 or CV-1 cells. On the set-up: expressed in transfected cells; host or cells: 293 cells (human embryonic kidney) infected with recombinant adenovirus hGR4 and reporter virus MLUC3; A3: 293 or CV-1 cells. The settings on record: 293 or CV-1 cells infected with both stocks, ten PFU/cell; lysates at twenty-two hours after infection. The source says: With the unpurified virus stocks, their ability to measure hormone-responsiveness was accomplished using various adrenocorticosteroid, in the luciferase based assay. Assuming that the titer of the viral stocks was approximately 10^8 PFU/ML, either 293 cells or CV-1 cells that have low endogenous GR levels were infected with both stocks at a multiplicity of infection equal to ten PFU/cell. At twenty-two hours after infection (empirically determined to be the time when maximal GR synthesis occurs by Western blot measurement of protein), cell lysates were prepared and tested for luciferase activity.
Within the concentration range of 10^-10 and 10^-5 M of corticosteroids, dose response curves were generated that appeared by all qualitative criteria to resemble the binding activities of those glucocorticoids for the receptor protein.

Test [2] concerns the target T1, human glucocorticoid receptor (GR). Description: Functional assay with recombinant receptor (hGR4) and reporter (MLUC3) viruses in 293 cells, luciferase activity. The settings on record: hGR4 + MLUC3 coinfected 293 cells; 22 hours after infection. The source says: A reporter virus (MLUC3; also variously referred to as Ad3MLUC, MpCV3MTV-LUC-Ad and ADMLUC) was constructed containing the mouse mammary tumor virus LTR linked to the firefly luciferase cDNA with an SV40 polyadenylation signal (Hollenberg, et al., Cell 55, 899 (1988)) similar to the receptor virus hGR4 above. The two viruses, hGR4 and MLUC3, were coinfected into 293 cells growing in DMEM suplemented with 10% charcoal adsorbed fetal calf serum ±10^-7 M dexamethasone (dex), and cellular extracts were prepared by Triton X-100™ brand non-ionic surfactant lysis at 22 hours after infection. (Williams, et al., Anal. Biochem 176, 28 (1989)) These were tested for luciferase activity by incubating with ATP and luciferin in a suitable buffer system. (de Wet, et al., Mol. Cell Biol. 7, 725 (1987)). Light liberated in this reaction was measured using a luminometer.

The target is the same in test [3]. Description: Detection of glucocorticoids: cells infected with hGR4 and MLUC3, luciferase activity. On the set-up: expressed in transfected cells; host or cells: 293 cells (human embryonic kidney) infected with recombinant adenovirus hGR4 and reporter virus MLUC3; A3: 293 or CV-1 cells. The settings on record: 10^-8 M cortisol, 18 hours p.i., read-out: Share of the maximal transcriptional response. The format is cell-based. On the procedure:
Cells were infected with hGR4 and MLUC3 recombinant adenoviruses in the presence of varying concentrations of cortisol from 10^-11 M to 10^-5 M in 3-fold dilution steps. At 18 hours p.i., lysates were prepared and luciferase activity was measured. Approximately 10% of the maximal transcriptional response was detected at 10^-8 M cortisol. Since standard assay volumes are 200 μl per well in a 96 sample microliter dish, this represents about 2×10^-12 mole or about 0.6 ng of cortisol.

With estrogen, in test [1], the “Induction of luciferase activity (inducer in this system)” value is recorded as “ineffective inducers”. Also, the “Luciferase response to dex mimicked by other adrenocorticosteroids” value (shortened to “Luciferase response to dex mimicked”) in test [2] was “mimicked”.

Turning to `C[C@]12CCC(=O)C=C1CC[C@@H]1[C@@H]2[C@@H](O)C[C@]2(C=O)[C@@H](C(=O)CO)CC[C@@H]12` [aldosterone], the “Luciferase response to dex mimicked” value in test [2] was “mimicked”.

Turning to `CC1=C(/C=C/C(C)=C/C=C/C(C)=C/C(=O)O)C(C)(C)CCC1` [retinoic acid], the “Induction of luciferase activity (inducer in this system)” value in test [1] is “ineffective inducers”.

On to `C[C@]12CCC(=O)C=C1CC[C@@H]1[C@@H]2[C@@H](O)C[C@@]2(C)[C@H]1CC[C@]2(O)C(=O)CO` [cortisol], for which the activation at 0.01 µM in test [3] was approximately 10%. Moreover, in test [2], the “Luciferase response to dex mimicked” value is on record as “mimicked”.

`C[C@]12C[C@H](O)[C@H]3[C@@H](CCC4=CC(=O)CC[C@@]43C)[C@@H]1CC[C@@H]2C(=O)CO` [corticosterone]: the “Luciferase response to dex mimicked” value in test [2] is reported as “mimicked”.
